According to article PMC8222254, “Self-assembly of an anion receptor with metal-dependent kinase inhibition and potent in vitro anti-cancer properties” (Nature Communications, 2021):
Values joined by “and” are separate entries in the source; they are usually repeats but may differ in a detail not shown here. Identical values can stand only once. Like-named read-outs stand apart in the source and are kept apart here.

What was measured:
Assay in all cases: Chemosensitivity, 96 h continuous exposure, MTT assay;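 for SI (NPI): adult human brain neural progenitor non-cancer cells from an epilepsy surgery patient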;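 for Selectivity Index using the NPI non-cancer cell line: adult human brain neural progenitor non-cancer cells from an epilepsy surgery patient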
Type in all cases: cell-based, human
A549 = system: A549;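 for SI (NPI): adult human brain neural progenitor non-cancer cells from an epilepsy surgery patient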;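 for Selectivity Index using the NPI non-cancer cell line: adult human brain neural progenitor non-cancer cells from an epilepsy surgery patient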
Outline: (§1)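 Growth inhibition is measured by MTT after cells are dosed for 96 h without washout. The 50% growth-reduction concentration is then interpolated from the curves.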

BxPC3 = system: BxPC3
Outline: as §1

DLD-1 = system: DLD-1
Outline: as §1

HCT116 p53+/+ = system: HCT116 p53+/+
Outline: as §1

HCT116 p53-/- = details: for SI (ARPE19): mean IC50 ARPE-19 / mean IC50 HCT116 p53-/-; for SI (MCF10A): mean IC50 MCF10A / mean IC50 HCT116 p53-/-
Outline: as §1

MCF10A non-cancer cells = system: MCF10A non-cancer cells
Outline: as §1

MiaPaCa2 = system: MiaPaCa2
Outline: as §1

## CC(=O)[O-].CC(=O)[O-].CC(=O)[O-].CC(=O)[O-].CC(=O)[O-].CC(=O)[O-].[Zn+2].[Zn+2].[Zn+2].c1ccc(-c2csc(NCCN(CCNc3nc(-c4ccccn4)cs3)CCNc3nc(-c4ccccn4)cs3)n2)nc1.c1ccc(-c2csc(NCCN(CCNc3nc(-c4ccccn4)cs3)CCNc3nc(-c4ccccn4)cs3)n2)nc1 [[L2Zn3]6+]
A549; A549, 96 h, MTT, individual run, read-out: IC50 values for each replicate
  IC50: 161 nM and 257 nM and 503 nM and 692 nM
A549; A549, 96 h, MTT, mean of at least 3 independent experiments, read-out: Mean IC50
  IC50: 403 nM
A549; A549, mean of replicates, read-out: Mean IC50
  IC50: 403 nM
A549; A549, read-out: Mean IC50 values
  IC50: 403 nM
A549; IC50 ARPE-19 / IC50 A549
  Selectivity index (ARPE19): 390.20
A549; IC50 MCF10A / IC50 A549
  Selectivity index (MCF10A): 401.09
A549; IC50 NP1 / IC50 A549
  Selectivity Index using the NPI non-cancer cell line: 19.31
A549; mean IC50 ARPE-19 / mean IC50 A549
  SI (ARPE19): 390.20
A549; mean IC50 MCF10A / mean IC50 A549
  SI (MCF10A): 401.09
A549; mean IC50 NP1 / mean IC50 A549
  SI (NPI): 19.31
A549; ratio of IC50, A549
  Relative potency (+ anion to no anion), Ratio + anion:no anion: 1
A549; ratio of SI (ARPE-19), A549
  Selectivity indices relative to ARPE-19, Ratio + anion:no anion: 1
A549; ratio of SI (MCF 10A), A549
  Selectivity indices relative to MCF10A, Ratio + anion:no anion: 1
BxPC3; BXPC3, mean of replicates, read-out: Mean IC50
  IC50: 320 nM
BxPC3; BXPC3, read-out: Mean IC50 values
  IC50: 320 nM
BxPC3; BxPC3, 96 h, MTT, individual run, read-out: IC50 values for each replicate
  IC50: 228 nM and 147 nM and 595 nM and 533 nM and 171 nM and 249 nM
BxPC3; BxPC3, 96 h, MTT, mean of at least 3 independent experiments, read-out: Mean IC50
  IC50: 320 nM
BxPC3; IC50 ARPE-19 / IC50 BXPC3
  Selectivity index (ARPE19): 491.41
BxPC3; IC50 MCF10A / IC50 BXPC3
  Selectivity index (MCF10A): 505.12
BxPC3; IC50 NP1 / IC50 BXPC3
  Selectivity Index using the NPI non-cancer cell line: 24.31
BxPC3; mean IC50 ARPE-19 / mean IC50 BxPC3
  SI (ARPE19): 491.41
BxPC3; mean IC50 MCF10A / mean IC50 BxPC3
  SI (MCF10A): 505.12
BxPC3; mean IC50 NP1 / mean IC50 BxPC3
  SI (NPI): 24.31
BxPC3; ratio of IC50, BXPC3
  Relative potency (+ anion to no anion), Ratio + anion:no anion: 1
BxPC3; ratio of SI (ARPE-19), BXPC3
  Selectivity indices relative to ARPE-19, Ratio + anion:no anion: 1
BxPC3; ratio of SI (MCF 10A), BXPC3
  Selectivity indices relative to MCF10A, Ratio + anion:no anion: 1
DLD-1; DLD-1, 96 h, MTT, individual run, read-out: IC50 values for each replicate
  IC50: 216 nM and 89 nM and 84 nM and 141 nM and 222 nM and 211 nM and 225 nM
DLD-1; DLD-1, 96 h, MTT, mean of at least 3 independent experiments, read-out: Mean IC50
  IC50: 170 nM
DLD-1; DLD-1, mean of replicates, read-out: Mean IC50
  IC50: 170 nM
DLD-1; DLD-1, read-out: Mean IC50 values
  IC50: 170 nM
DLD-1; IC50 ARPE-19 / IC50 DLD-1
  Selectivity index (ARPE19): 925.00
DLD-1; IC50 MCF10A / IC50 DLD-1
  Selectivity index (MCF10A): 950.82
DLD-1; IC50 NP1 / IC50 DLD-1
  Selectivity Index using the NPI non-cancer cell line: 45.76
DLD-1; mean IC50 ARPE-19 / mean IC50 DLD-1
  SI (ARPE19): 925.00
DLD-1; mean IC50 MCF10A / mean IC50 DLD-1
  SI (MCF10A): 950.82
DLD-1; mean IC50 NP1 / mean IC50 DLD-1
  SI (NPI): 45.76
DLD-1; ratio of IC50, DLD-1
  Relative potency (+ anion to no anion), Ratio + anion:no anion: 1
DLD-1; ratio of SI (ARPE-19), DLD-1
  Selectivity indices relative to ARPE-19, Ratio + anion:no anion: 1
DLD-1; ratio of SI (MCF 10A), DLD-1
  Selectivity indices relative to MCF10A, Ratio + anion:no anion: 1
HCT116 p53+/+; HCT116 p53+/+, 96 h, MTT, mean of at least 3 independent experiments, read-out: Mean IC50
  IC50: 466 nM
HCT116 p53+/+; HCT116 p53+/+, mean of replicates, read-out: Mean IC50
  IC50: 466 nM
HCT116 p53+/+; HCT116 p53+/+, read-out: Mean IC50 values
  IC50: 466 nM
HCT116 p53+/+; IC50 ARPE-19 / IC50 HCT116 p53+/+
  Selectivity index (ARPE19): 337.45 and 337.23
HCT116 p53+/+; IC50 MCF10A / IC50 HCT116 p53+/+
  Selectivity index (MCF10A): 346.87
HCT116 p53+/+; IC50 NP1 / IC50 HCT116 p53+/+
  Selectivity Index using the NPI non-cancer cell line: 16.70
HCT116 p53+/+; mean IC50 ARPE-19 / mean IC50 HCT116 p53+/+
  SI (ARPE19): 337.45
HCT116 p53+/+; mean IC50 MCF10A / mean IC50 HCT116 p53+/+
  SI (MCF10A): 346.87
HCT116 p53+/+; mean IC50 NP1 / mean IC50 HCT116 p53+/+
  SI (NPI): 16.70
HCT116 p53+/+; ratio of IC50, HCT116 p53+/+
  Relative potency (+ anion to no anion), Ratio + anion:no anion: 1
HCT116 p53+/+; ratio of SI (ARPE-19), HCT116 p53+/+
  Selectivity indices relative to ARPE-19, Ratio + anion:no anion: 1
HCT116 p53+/+; ratio of SI (MCF 10A), HCT116 p53+/+
  Selectivity indices relative to MCF10A, Ratio + anion:no anion: 1
HCT116 p53-/-; HCT116 p53-/-, 96 h, MTT, individual run, read-out: IC50 values for each replicate
  IC50: 61 nM and 91 nM and 64 nM
HCT116 p53-/-; HCT116 p53-/-, 96 h, MTT, mean of at least 3 independent experiments, read-out: Mean IC50
  IC50: 72 nM
HCT116 p53-/-; HCT116 p53-/-, 96 h, MTT, read-out: IC50
  IC50: 70 ± 13 nM
HCT116 p53-/-; HCT116 p53-/-, mean of replicates, read-out: Mean IC50
  IC50: 75 nM
HCT116 p53-/-; HCT116 p53-/-, read-out: Mean IC50 values
  IC50: 72 nM
HCT116 p53-/-; HCT116 p53-/-, single replicate, read-out: IC50 values for each replicate
  IC50: 79 nM and 86 nM
HCT116 p53-/-; IC50 ARPE-19 / IC50 HCT116 p53-/-
  Selectivity index (ARPE19): 2184.03 and 2183.99
HCT116 p53-/-; IC50 MCF10A / IC50 HCT116 p53-/-
  Selectivity index (MCF10A): 2245.00
HCT116 p53-/-; IC50 NP1 / IC50 HCT116 p53-/-
  Selectivity Index using the NPI non-cancer cell line: 108.06
HCT116 p53-/-; based on 96h IC50 values
  more active towards HCT116 p53-/- than HCT116 p53+/+: ~ 6 fold
HCT116 p53-/-
  SI (ARPE19): 2184.03
  SI (MCF10A): 2245.00
HCT116 p53-/-; listed as [L2Zn3]^6+
  SI (ARPE19): over 2000
  SI (MCF10A): over 2000
HCT116 p53-/-; mean IC50 NP1 / mean IC50 HCT116 p53-/-
  SI (NPI): 108.06
HCT116 p53-/-; ratio of IC50, HCT116 p53-/-
  Relative potency (+ anion to no anion), Ratio + anion:no anion: 1
HCT116 p53-/-; ratio of SI (ARPE-19), HCT116 p53-/-
  Selectivity indices relative to ARPE-19, Ratio + anion:no anion: 1
HCT116 p53-/-; ratio of SI (MCF 10A), HCT116 p53-/-
  Selectivity indices relative to MCF10A, Ratio + anion:no anion: 1
MCF10A non-cancer cells; MCF10A non-cancer, read-out: Mean IC50 values
  IC50: 162000 nM
MCF10A non-cancer cells; MCF10A, 96 h, MTT, individual run, read-out: IC50 values for each replicate
  IC50: 169000 nM and 176000 nM and 140000 nM
MCF10A non-cancer cells; MCF10A, 96 h, MTT, mean of at least 3 independent experiments, read-out: Mean IC50
  IC50: 162000 nM
MCF10A non-cancer cells; MCF10A, mean of replicates, read-out: Mean IC50
  IC50: 162000 nM
MCF10A non-cancer cells; ratio of IC50, MCF10A
  Relative potency (+ anion to no anion), Ratio + anion:no anion: 1
MiaPaCa2; IC50 ARPE-19 / IC50 MiaPaCa2
  Selectivity index (ARPE19): 2.66
MiaPaCa2; IC50 MCF10A / IC50 MiaPaCa2
  Selectivity index (MCF10A): 2.74
MiaPaCa2; IC50 NP1 / IC50 MiaPaCa2
  Selectivity Index using the NPI non-cancer cell line: 0.13
MiaPaCa2; MiaPaCa2, 96 h, MTT, individual run, read-out: IC50 values for each replicate
  IC50: 11900 nM and 15000 nM and 16300 nM
MiaPaCa2; MiaPaCa2, mean of replicates, read-out: Mean IC50
  IC50: 59100 nM
MiaPaCa2; MiaPaCa2, read-out: Mean IC50 values
  IC50: 59100 nM
MiaPaCa2; MiaPaCa2, single replicate, read-out: IC50 values for each replicate
  IC50: 52700 nM and 64800 nM and 64500 nM and 54300 nM
MiaPaCa2; mean IC50 ARPE-19 / mean IC50 MiaPaCa2
  SI (ARPE19): 10.90
MiaPaCa2; mean IC50 MCF10A / mean IC50 MiaPaCa2
  SI (MCF10A): 11.21
MiaPaCa2; mean IC50 NP1 / mean IC50 MiaPaCa2
  SI (NPI): 0.54
MiaPaCa2; ratio of IC50, MiaPaCa2
  Relative potency (+ anion to no anion), Ratio + anion:no anion: 1
MiaPaCa2; ratio of SI (ARPE-19), MiaPaCa2
  Selectivity indices relative to ARPE-19, Ratio + anion:no anion: 1
MiaPaCa2; ratio of SI (MCF 10A), MiaPaCa2
  Selectivity indices relative to MCF10A, Ratio + anion:no anion: 1
